This is an account of results in US4684620A, “Cyclic polypeptides having mu-receptor specificity” (Gibson-Stephens Neuropharmaceuticals, Inc., priority 1984, dated 1987).

Positions of bridges follow the written chain, without caps; N, C: chain ends. Non-standard residues stand in square brackets, D forms with d. Residues, ends and D or L forms follow the SMILES beside them. Asu = N[C@@H](CCCCCC(=O)O)C(=O)O; dPhg = N[C@@H](C(=O)O)c1ccccc1; Pen = CC(C)(S)[C@H](N)C(=O)O Bounds are passed on as bounds.

The IC50 is the concentration that gives 50% inhibition. Read a low IC50 as greater potency.

In data set [1] the target is T1, mu opioid receptor (Rattus norvegicus, UniProt P33535).
T1 construct: Adult Sprague-Dawly rats (150-200g) were killed by decapitation; The brain was rapidly removed and homogenized; from tissue; host or cells: rat brain membranes (Sprague-Dawley)
T1 sequence (P33535 whole entry): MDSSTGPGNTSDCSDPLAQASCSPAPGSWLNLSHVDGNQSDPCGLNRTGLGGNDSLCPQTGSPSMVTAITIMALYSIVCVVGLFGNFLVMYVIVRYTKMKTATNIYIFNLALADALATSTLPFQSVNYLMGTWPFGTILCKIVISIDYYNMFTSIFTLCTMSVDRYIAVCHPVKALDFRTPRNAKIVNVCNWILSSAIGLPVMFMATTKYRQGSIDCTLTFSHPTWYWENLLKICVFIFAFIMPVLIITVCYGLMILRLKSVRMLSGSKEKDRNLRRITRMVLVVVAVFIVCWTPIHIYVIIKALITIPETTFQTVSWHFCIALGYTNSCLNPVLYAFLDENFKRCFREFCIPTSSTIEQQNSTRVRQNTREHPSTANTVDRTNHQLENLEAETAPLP
The data set can be described thus: [3H]naloxone receptor binding to rat brain homogenates. The conditions noted are these: for IC50: 1 nM [3H]naloxone. As for the experimental part: (§1) Adult Sprague-Dawly rats (150-200g) were killed by decapitation. The brain was rapidly removed and homogenized (10% wt/vol in 0.32 M sucrose in a glass homogenizer with a motor driven teflon pestle. The homogenate was then centrifuged at 43,000×g for 10 min and the resulting pellet was resuspended in 50 mM Trisma buffer (pH 7.4 at 25° C.) containing 5 mM MgCl2, 2 mg/ml BSA and 20 mg/ml of bacitracin, using a Polytron homogenizer (15 sec, setting 5). The centrifugation and resuspension step was repeated once.
(§2) For all the inhibition studies, rat brain plasma membranes (100 μl ) were incubated at 25° C. for 60 min in a total of 1.0 ml of 50 mM Trisma buffer containing 220,000 dpm ^125 I-CGP 23,996. See Czernik, A. J. and Petrack, G., J. Biol. Chem. 258,5525-5530 (1983) which is herein specifically incorporated by reference. 1 nM [^3 H-]naloxone (42.3 Ci/mmol, New England Nuclear) or 1 nM [^3 H]DADLE ([D-Ala^2, D-Ala^5 ]enkephalin), [^3 H-3'5'-Tyr]DADLE, 43 Ci/mmol, New England Nuclear, and at least nine concentrations of our synthetic analogues. All incubations were done in duplicate and each compound was tested at least five times. The concentration of test compounds was determined by quantitative amino acid analysis or from published molar extinction coefficients. […] The data were analyzed using nonlinear least squares regression analysis.

The target in data set [2] is T2, δ-opiate receptors (Rattus norvegicus, UniProt P33533).
T2 construct: Adult Sprague-Dawly rats (150-200g) were killed by decapitation; The brain was rapidly removed and homogenized; from tissue; host or cells: rat brain membranes (Sprague-Dawley)
T2 sequence (P33533 whole entry): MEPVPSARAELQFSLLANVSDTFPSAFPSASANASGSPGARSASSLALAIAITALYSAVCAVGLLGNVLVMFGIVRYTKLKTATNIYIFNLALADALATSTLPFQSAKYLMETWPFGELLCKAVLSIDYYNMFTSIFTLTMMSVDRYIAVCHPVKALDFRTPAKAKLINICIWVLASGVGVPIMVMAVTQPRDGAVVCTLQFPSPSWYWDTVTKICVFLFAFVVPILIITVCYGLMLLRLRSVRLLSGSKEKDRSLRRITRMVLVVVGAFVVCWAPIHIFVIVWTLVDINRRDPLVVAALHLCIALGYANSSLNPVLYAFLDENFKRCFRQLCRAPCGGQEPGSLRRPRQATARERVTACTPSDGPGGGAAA
The data set can be described thus: [3H]DADLE receptor binding to rat brain homogenates. Particulars: for IC50: 1 nM [3H]DADLE. The procedure:
as §1, §2

Data set [3] in a line: Partition coefficient, octanol-water. The class given is physicochemical. Particulars: read-out: Partition Coefficient, Octanol-Water, log P.
Data set [4] deals with T3, delta-type opiate receptors (Mus musculus, UniProt P32300).
T3 construct: from tissue; host or cells: mouse vas deferens
T3 sequence (P32300 whole entry): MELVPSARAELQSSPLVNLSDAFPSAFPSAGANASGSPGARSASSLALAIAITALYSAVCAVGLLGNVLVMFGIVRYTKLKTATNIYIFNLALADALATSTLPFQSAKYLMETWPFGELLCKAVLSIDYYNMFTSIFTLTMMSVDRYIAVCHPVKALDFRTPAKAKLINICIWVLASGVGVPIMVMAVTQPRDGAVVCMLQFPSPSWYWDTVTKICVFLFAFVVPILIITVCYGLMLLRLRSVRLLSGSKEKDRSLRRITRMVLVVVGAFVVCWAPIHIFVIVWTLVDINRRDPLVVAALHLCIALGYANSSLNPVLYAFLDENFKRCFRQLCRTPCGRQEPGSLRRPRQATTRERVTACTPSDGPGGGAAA
Put plainly: Mouse vas deferens (MVD) test, electrically stimulated contractions, antagonism of DPDPE. The procedure: The compounds of the present invention were tested for their ability to inhibit electrically stimulated muscle contractions in the guinea pig ileum (GPI) assay and in the mouse vas deferens (MVD) assay.
The mouse vasa deferentia tests were conducted as follows: vas deferens of male mice were placed in a 60 ml tissue bath and attached to a force transducer. Contractions were induced by electrical stimulation. […] Percent inhibition was calculated.

With `C[C@@H](O)[C@H](NC(=O)[C@@H]1CSSC(C)(C)[C@H](NC(=O)[C@H](N)Cc2ccccc2)C(=O)N[C@@H](Cc2ccc(O)cc2)C(=O)N[C@H](Cc2c[nH]c3ccccc23)C(=O)N[C@@H](CCCCN)C(=O)N[C@@H]([C@@H](C)O)C(=O)N1)C(=O)O`, the IC50 in data set [1] was 471 nM; in data set [2], 2.56 µM.

On to `CC(=O)N[C@@H](Cc1ccccc1)C(=O)N[C@H](Cc1c[nH]c2ccccc12)C(=O)N[C@@H](CCCCN)C(=O)N[C@H](C(=O)O)[C@@H](C)O` [AcPhe --D-TrpLysThr, reference compound] (Ac-F[dW]KT-OH), for which the IC50 in data set [1] worked out at 51500 nM; in data set [2], 5.84 µM.

For the compound `C[C@@H](O)[C@@H]1NC(=O)[C@H](Cc2ccc(O)cc2)NC(=O)[C@H]([C@@H](C)O)NC(=O)[C@H](CCCCN)NC(=O)[C@H](Cc2c[nH]c3ccccc23)NC(=O)[C@H](Cc2ccccc2)NC(=O)[C@H](Cc2ccccc2)NC(=O)[C@H](CC(N)=O)NC(=O)[C@H](CCCCN)NC(=O)CCCCC[C@@H](C(=O)O)NC(=O)[C@H](CO)NC1=O` [CGP 23,996, des-Ala^1,Gly^2-desamino-Cys3-[Tyr^11]-dicarba^3,14-somatostatin, reference compound] (KNFFWKTYTS[Asu]-OH; lactam N-11), the figures for the concentration for half-maximal inhibition (IC50) in data set [1] and in data set [2] were more than 100000 nM and more than 100 µM, respectively.

As to `C[C@@H](O)[C@H](NC(=O)[C@H]1NC(=O)[C@H]([C@@H](C)O)NC(=O)[C@H](CCCCN)NC(=O)[C@@H](Cc2c[nH]c3ccccc23)NC(=O)[C@H](Cc2ccc(O)cc2)NC(=O)[C@@H](NC(=O)[C@H](N)Cc2ccccc2)CSSC1(C)C)C(=O)O` [Example 1], the logP in data set [3] worked out at 0.7.

Turning to `C[C@@H](O)[C@H](NC(=O)[C@H]1NC(=O)[C@H]([C@@H](C)O)NC(=O)[C@H](CCCCN)NC(=O)[C@@H](Cc2c[nH]c3ccccc23)NC(=O)[C@H](Cc2ccc(O)cc2)NC(=O)[C@@H](NC(=O)[C@H](N)Cc2ccccc2)CSSC1(C)C)C(N)=O` [Example VI], the logP in data set [3] was -0.2.

As for `C[C@@H](O)[C@H](NC(=O)[C@H]1NC(=O)[C@H]([C@@H](C)O)NC(=O)[C@H](CCCCN)NC(=O)[C@@H](Cc2c[nH]c3ccccc23)NC(=O)[C@H](Cc2ccccc2)NC(=O)[C@@H](NC(=O)[C@H](N)Cc2ccccc2)C(C)(C)SSC1(C)C)C(=O)O` [Example V], in data set [3], the logP was 0.

Regarding `C[C@@H](O)[C@H](NC(=O)[C@H]1NC(=O)[C@H]([C@@H](C)O)NC(=O)[C@H](CCCCN)NC(=O)[C@@H](Cc2c[nH]c3ccccc23)NC(=O)[C@H](Cc2ccccc2)NC(=O)[C@@H](NC(=O)[C@H](N)Cc2ccccc2)CSSC1(C)C)C(=O)O` [III], the logP in data set [3] was -0.71.

As for `C[C@@H](O)[C@H](NC(=O)[C@@H]1CSSC[C@H](NC(=O)[C@H](N)Cc2ccccc2)C(=O)N[C@@H](Cc2ccccc2)C(=O)N[C@H](Cc2c[nH]c3ccccc23)C(=O)N[C@@H](CCCCN)C(=O)N[C@@H]([C@@H](C)O)C(=O)N1)C(=O)O` [II], the logP in data set [3] was -0.77.

For the compound `C[C@@H](O)[C@H](NC(=O)[C@@H]1CSSC(C)(C)[C@H](NC(=O)[C@H](N)Cc2ccccc2)C(=O)N[C@@H](Cc2ccccc2)C(=O)N[C@H](Cc2c[nH]c3ccccc23)C(=O)N[C@@H](CCCCN)C(=O)N[C@@H]([C@@H](C)O)C(=O)N1)C(=O)O` [IV], the logP in data set [3] is -0.22.

As to `C[C@H](N)C(=O)NCC(=O)N[C@H]1CSSC[C@@H](C(=O)O)NC(=O)[C@H](CO)NC(=O)[C@H]([C@@H](C)O)NC(=O)[C@H](Cc2ccccc2)NC(=O)[C@H]([C@@H](C)O)NC(=O)[C@H](CCCCN)NC(=O)[C@H](Cc2c[nH]c3ccccc23)NC(=O)[C@H](Cc2ccccc2)NC(=O)[C@H](Cc2ccccc2)NC(=O)[C@H](CC(N)=O)NC(=O)[C@H](CCCCN)NC1=O` [SOMATOSTATIN, somatostatin, reference compound], in data set [1], the “[3H]Naloxone nH” value is on record as 1.02. The “[3H]DADLE nH” value in data set [2] is given as 1.09.

For the compound `C[C@@H](O)[C@H](NC(=O)[C@@H]1CSSC(C)(C)[C@H](NC(=O)[C@H](N)c2ccccc2)C(=O)N[C@@H](Cc2ccccc2)C(=O)N[C@H](Cc2c[nH]c3ccccc23)C(=O)N[C@@H](CCCCN)C(=O)N[C@@H]([C@@H](C)O)C(=O)N1)C(=O)O` [VIII] (H-[dPhg][Pen]F[dW]KTCT-OH; disulfide 2-7), in data set [3], the logP was -0.57.

On to `C[C@@H](O)[C@H](NC(=O)[C@H]1NC(=O)[C@H]([C@@H](C)O)NC(=O)[C@H](CCCCN)NC(=O)[C@@H](Cc2c[nH]c3ccccc23)NC(=O)[C@H](Cc2ccccc2)NC(=O)[C@@H](NC(=O)[C@H](N)Cc2ccccc2)CSSC1(C)C)C(N)=O` [VII], for which the logP in data set [3] came to 0.36.

On to `C[C@@H](O)[C@H](NC(=O)[C@H]1NC(=O)[C@H]([C@@H](C)O)NC(=O)[C@H](CCCCN)NC(=O)[C@@H](Cc2c[nH]c3ccccc23)NC(=O)[C@H](Cc2ccc(O)cc2)NC(=O)[C@@H](NC(=O)[C@H](N)Cc2ccccc2)CSSC1(C)C)C(N)=O` [drawing 24], for which the IC50 in data set [1] is 3.5 nM; in data set [2] it was 0.952 µM.

Turning to `C[C@@H](O)[C@H](NC(=O)[C@H]1NC(=O)[C@H]([C@@H](C)O)NC(=O)[C@H](CCCCN)NC(=O)[C@@H](Cc2c[nH]c3ccccc23)NC(=O)[C@H](Cc2ccccc2)NC(=O)[C@@H](NC(=O)[C@H](N)Cc2ccccc2)CSSC1(C)C)C(N)=O` [drawing 25], the IC50 in data set [1] was determined as 9.9 nM; in data set [2], 1.1 µM.

For the compound `C[C@@H](O)[C@H](NC(=O)[C@H]1NC(=O)[C@H]([C@@H](C)O)NC(=O)[C@H](CCCCN)NC(=O)[C@@H](Cc2c[nH]c3ccccc23)NC(=O)[C@H](Cc2ccc(O)cc2)NC(=O)[C@@H](NC(=O)[C@H](N)Cc2ccccc2)CSSC1(C)C)C(=O)O` [drawing 26], the IC50 in data set [1] is 293 nM; in data set [2] it was 3.76 µM.

Take `C[C@@H](O)[C@H](NC(=O)[C@H]1NC(=O)[C@H]([C@@H](C)O)NC(=O)[C@H](CCCCN)NC(=O)[C@@H](Cc2c[nH]c3ccccc23)NC(=O)[C@H](Cc2ccccc2)NC(=O)[C@@H](NC(=O)[C@H](N)Cc2ccccc2)CSSC1(C)C)C(=O)O` [drawing 27]: the values for the 50% inhibitory concentration (IC50) in data set [1] and in data set [2] were 926 nM and 5.42 µM, respectively.

For `C[C@@H](O)[C@H](NC(=O)[C@@H]1CSSC(C)(C)[C@H](NC(=O)[C@H](N)c2ccccc2)C(=O)N[C@@H](Cc2ccccc2)C(=O)N[C@H](Cc2c[nH]c3ccccc23)C(=O)N[C@@H](CCCCN)C(=O)N[C@@H]([C@@H](C)O)C(=O)N1)C(=O)O` [drawing 28] (H-[dPhg][Pen]F[dW]KTCT-OH; disulfide 2-7), the IC50 in data set [1] was determined as 2500 nM; in data set [2], 13.5 µM.

Regarding `C[C@@H](O)[C@H](NC(=O)[C@H]1NC(=O)[C@H]([C@@H](C)O)NC(=O)[C@H](CCCCN)NC(=O)[C@@H](Cc2c[nH]c3ccccc23)NC(=O)[C@H](Cc2ccccc2)NC(=O)[C@@H](NC(=O)[C@H](N)Cc2ccccc2)C(C)(C)SSC1(C)C)C(=O)O` [drawing 30], the results for the IC50 in data set [1] and in data set [2] were 8270 nM and 11.1 µM, respectively.

`C[C@@H](O)[C@H](NC(=O)[C@@H]1CSSC[C@H](NC(=O)[C@H](N)Cc2ccccc2)C(=O)N[C@@H](Cc2ccccc2)C(=O)N[C@H](Cc2c[nH]c3ccccc23)C(=O)N[C@@H](CCCCN)C(=O)N[C@@H]([C@@H](C)O)C(=O)N1)C(=O)O` [drawing 31]: the figures for the IC50 in data set [1] and in data set [2] were 2580 nM and 3.14 µM, respectively.

`C[C@@H](O)[C@H](NC(=O)[C@@H]1CSSC(C)(C)[C@H](NC(=O)[C@H](N)Cc2ccccc2)C(=O)N[C@@H](Cc2ccccc2)C(=O)N[C@H](Cc2c[nH]c3ccccc23)C(=O)N[C@@H](CCCCN)C(=O)N[C@@H]([C@@H](C)O)C(=O)N1)C(=O)O` [drawing 32]: the IC50 came out at 61000 nM in data set [1] and 38.1 µM in data set [2].

Consider `C[C@@H](O)[C@H](NC(=O)[C@H]1NC(=O)[C@H]([C@@H](C)O)NC(=O)[C@H](CCCCN)NC(=O)[C@@H](Cc2c[nH]c3ccccc23)NC(=O)[C@H](Cc2ccc(O)cc2)NC(=O)[C@@H](NC(=O)[C@H](N)Cc2ccccc2)CSSC1(C)C)C(N)=O` [drawing 41], for which the “Percent inhibition of contractions” value in data set [4] (DPDPE 1 nM plus 1000 nM analog) came to 13 ± 3%; in data set [4] (DPDPE 3 nM plus 1000 nM analog) it was 28 ± 4%; in data set [4] (DPDPE 10 nM plus 1000 nM analog) it was 48 ± 8%; in data set [4] (DPDPE 30 nM plus 1000 nM analog), 73 ± 9%; in data set [4] (DPDPE 100 nM plus 1000 nM analog) it was 91 ± 5%; in data set [4] (DPDPE 300 nM plus 1000 nM analog) it was 97 ± 1%.
